Results from US9296716B2, “Androgen receptor ligands” (THE PROVOST, FELLOWS, FOUNDATION SCHOLARS, & THE OTHER …, priority 2011, dated 2016).

Experiments:
Format in all cases: biochemical
AR-LBD wt = molecular target: T1, AR-LBD wt (Homo sapiens, UniProt P10275); experiment: Lanthascreen TR-FRET AR coactivator (D11-FxxLF) assay, AR-LBD wt; conditions: for type of AR antagonism (full / partial): TR-FRET in agonist and antagonist mode; for IC50: TR-FRET, D11-FxxLF peptide, DHT = EC80, read-out: Activity (AR wt TR-FRET)
T1 sequence (P10275 669-900 limits assumed): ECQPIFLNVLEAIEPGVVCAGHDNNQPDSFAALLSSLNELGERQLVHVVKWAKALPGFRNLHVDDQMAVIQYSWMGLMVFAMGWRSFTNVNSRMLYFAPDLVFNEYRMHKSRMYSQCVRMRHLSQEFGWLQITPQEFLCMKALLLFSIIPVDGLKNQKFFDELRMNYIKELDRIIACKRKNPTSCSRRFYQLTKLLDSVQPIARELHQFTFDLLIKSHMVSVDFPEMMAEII

[1] = molecular target: T2, Glucocorticoid Receptor (GR) LBD (Homo sapiens, UniProt P04150); experiment: TR-FRET SRC1-4 coactivator recruitment assay, GR LBD; conditions: Dexamethasone = EC80; for effect on SRC1-4 recruitment by GR LBD: 100 μM to 12.5 μM or single point 100 μM; for IC50: TR-FRET, ± SEM (n = 6), read-out: NR LBDs IC50 (μM) GR
T2 construct: purchased Invitrogen PV4683
T2 sequence (P04150 524-758 limits assumed): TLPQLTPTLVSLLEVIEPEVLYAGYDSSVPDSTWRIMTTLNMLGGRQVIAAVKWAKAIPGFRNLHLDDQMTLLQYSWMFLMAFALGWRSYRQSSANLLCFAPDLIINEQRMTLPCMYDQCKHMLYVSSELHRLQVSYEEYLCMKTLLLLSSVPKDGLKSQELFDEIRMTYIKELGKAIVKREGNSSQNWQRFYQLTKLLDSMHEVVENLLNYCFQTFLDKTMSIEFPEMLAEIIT
Procedure: (§1) Compound binding affinities for Progesterone Receptor (PR), Glucocorticoid Receptor (GR), Estrogen Receptor alpha and Estrogen Receptor beta were determined using TR-FRET (Table 2).
Dexamethasone bound receptor recruitment of the fluorescently labelled SCR1-4 coactivator was unimpaired at screening concentrations up to 100 μM for all the diarylhydrazides evaluated (FIG. 5).
(§2) Lanthascreen TR-FRET AR Coactivator Assay kit (Invitrogen, cat no. PV4381) was used to screen for potential coactivator disruptors.
(§3) TR FRET values were calculated at 10 flashes per well, using a delay time of 100 μs and integration time 200 μs as recommended by the Invitrogen assay guidelines. […] A serial dilution of compounds was firstly prepared in 100×DMSO (Sigma-Aldrich) starting from the maximum desired concentration to achieve a 12 point range concentration using 96-well polypropylene plates (Nalgene Nunc, Rochester, N.Y.). Each 100× solution was diluted to 2× concentration with TR-FRET co-regulator buffer A (Invitrogen proprietary buffer), yielding a final concentration of 1% DMSO in each well.
(§4) D11-FxxLF and Tb antibody were premixed in light protecting vials prior to use. A final concentration of DTT 5 mM was used in the assay buffer in order to prevent protein degradation. All plates (agonist and antagonist mode) were incubated between 2 and 4 hours at room temperature protected from light prior to TR-FRET measurement. […] Data was fitted using the sigmoidal dose response (variable slope) available from Graphpad Prism 5. Y=Bottom+(Top-Bottom)/(1+10^((Log IC50−X)*HillSlope))
(§5) The same procedure was used for AR T877A (Invitrogen cat no. PV4667), PR (Invitrogen cat no. PV4666), ER-α (Invitrogen cat no. PV4544), ER-β (Invitrogen cat no. PV4541) and GR (Invitrogen cat no. PV4683). The assay was adapted to exclude possible non-specific aggregation mechanism of inhibition by adding very low concentration of detergent Triton X-100 (0.001%) to the assay buffer following the Shoichet review guidelines [Shoichet BK (2006) Screening in a spirit haunted world. Drug Discov Today 11:607-615].

[2] = molecular target: T3, Progesterone Receptor (PR) LBD (Homo sapiens, UniProt P06401); experiment: TR-FRET SRC1-4 coactivator recruitment assay, PR LBD; conditions: Progesterone = EC80; for effect on PR LBD recruitment of fluorescent labelled SRC1-4 coactivator: maximal concentration of 100 μM; for IC50: TR-FRET, ± SEM (n = 6), read-out: NR LBDs IC50 (μM) PR
T3 construct: purchased Invitrogen PV4666
T3 sequence (P06401 679-913 limits assumed): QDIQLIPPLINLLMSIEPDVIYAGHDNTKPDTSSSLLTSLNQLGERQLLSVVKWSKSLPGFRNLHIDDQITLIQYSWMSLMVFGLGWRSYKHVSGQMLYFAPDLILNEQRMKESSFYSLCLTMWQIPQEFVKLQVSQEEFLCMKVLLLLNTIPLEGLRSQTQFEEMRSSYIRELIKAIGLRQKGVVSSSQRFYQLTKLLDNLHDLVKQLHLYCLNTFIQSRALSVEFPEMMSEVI
Procedure: as §1, §2, §3, §4, §5

[3] = molecular target: T4, Estrogen Receptor alpha (ER-α) LBD (Homo sapiens, UniProt P03372); experiment: TR-FRET PGC1-α coactivator recruitment assay, ERα LBD; conditions: Estradiol = EC80; for effect on ERα LBD recruitment of fluorescent labelled PGC1-α coactivator: maximal concentration of 100 μM; for IC50: TR-FRET, ± SEM (n = 6), read-out: NR LBDs IC50 (μM) ER-α
T4 sequence (P03372 311-547 limits assumed): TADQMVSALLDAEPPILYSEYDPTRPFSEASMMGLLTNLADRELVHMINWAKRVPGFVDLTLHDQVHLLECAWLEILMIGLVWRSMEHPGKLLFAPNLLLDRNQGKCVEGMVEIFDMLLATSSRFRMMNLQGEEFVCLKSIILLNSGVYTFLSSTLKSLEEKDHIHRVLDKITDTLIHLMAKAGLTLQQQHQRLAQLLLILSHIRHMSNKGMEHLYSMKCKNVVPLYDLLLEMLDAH
Procedure: as §1
(§6) Selectivity of the diarylhydrazide scaffold for the AR was determined through a TR-FRET assay in ERα (FIGS. 8A & 9A1) and ERR (FIGS. 8B & 9A2). […] The non-LBP nature of this inhibition was confirmed by a FP assay (FIGS. 9C, 9B1 & 9B2).
as §2, §3, §4, §5

[4] = molecular target: Estrogen Receptor beta (ER-β) LBD (Homo sapiens, UniProt Q92731); experiment: TR-FRET PGC1-α coactivator recruitment assay, ERβ LBD; conditions: Estradiol = EC80; for effect on ERβ LBD recruitment of fluorescent labelled PGC1-α coactivator: maximal concentration of 100 μM; for IC50: TR-FRET, ± SEM (n = 6), read-out: NR LBDs IC50 (μM) ER-β
Procedure: as §1, §6, §2, §3, §4, §5

Chain of Estrogen Receptor beta (ER-β) LBD (Q92731 264-498 limits assumed): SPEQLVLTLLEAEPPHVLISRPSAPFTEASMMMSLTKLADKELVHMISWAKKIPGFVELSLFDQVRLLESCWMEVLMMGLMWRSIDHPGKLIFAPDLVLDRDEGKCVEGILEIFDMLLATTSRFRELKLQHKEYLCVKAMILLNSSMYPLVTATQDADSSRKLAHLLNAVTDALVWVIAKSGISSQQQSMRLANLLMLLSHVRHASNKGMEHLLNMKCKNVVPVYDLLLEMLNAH

Compound	type of AR antagonism (full / partial) (AR-LBD wt)	IC50 (AR-LBD wt) [µM]	effect on SRC1-4 recruitment by GR LBD [1]	IC50 [1] [µM]	effect on PR LBD recruitment of fluorescent labelled SRC1-4 coactivator [2]	effect on ERα LBD recruitment of fluorescent labelled PGC1-α coactivator [3]	effect on ERβ LBD recruitment of fluorescent labelled PGC1-α coactivator [4]	IC50 [3] [µM]	IC50 [4] [µM]	IC50 [2] [µM]	effect on PR recruitment of fluorescent labelled SRC1-4 ([2]; 100 μM to 45 nM)	effect on ERα recruitment of fluorescent labelled PGC1-α ([3]; 100 μM to 45 nM)	effect on ERβ recruitment of fluorescent labelled PGC1-α ([4]; 100 μM to 45 nM)
Cc1cccc(/C=N/NC(=O)c2cc3ccccc3cc2O)c1O [MDG616]	full AR antagonists	13.2 ± 2.8	do not affect	> 100	inhibit	inhibit	inhibit	–	–	–	–	–	–
O=C(N/N=C/c1cc([N+](=O)[O-])ccc1O)c1cc2ccccc2cc1O [MDG614]	full AR antagonists	33.4 ± 4.7	do not affect	> 100	inhibit	inhibit	inhibit	> 100	> 100	–	–	–	–
O=C(O)c1ccc(O)c(/C=N/NC(=O)c2cc3ccccc3cc2O)c1 [MDG630]	full AR antagonists	43.5 ± 3.7	do not affect	> 100	inhibit	inhibit	inhibit	–	–	–	–	–	–
COc1cccc(/C=N/NC(=O)c2cc3ccccc3cc2O)c1O [MDG617]	full AR antagonists	12.2 ± 0.5	do not affect	> 100	inhibit	inhibit	inhibit	–	–	–	–	–	–
O=C(N/N=C/c1cccc(Cl)c1)c1cc2ccccc2cc1O [MDG491]	full AR antagonists	42.7 ± 3.5	do not affect	> 100	inhibit	inhibit	inhibit	> 100	> 100	50 to 100	–	–	–
O=C(N/N=C/c1ccccc1O)c1cc2ccccc2cc1O [MDG608]	full AR antagonists	55.2 ± 19.2	do not affect	> 100	inhibit	inhibit	inhibit	> 100	–	> 100	–	–	–
CCCOc1ccc(/C=N/NC(=O)c2cc3c(ccc4ccccc43)o2)cc1 [MDG508]	full AR antagonists	–	do not affect	> 100	–	–	–	4 ± 1.4	2.9	5.9	partially inhibit	partially inhibit	partially inhibit
O=C(N/N=C/c1cc(Cl)ccc1O)c1cc2ccccc2cc1O [MDG605]	full AR antagonists	10.3 ± 1.4	do not affect	> 100	inhibit	inhibit	inhibit	50 to 100	50 to 100	–	–	–	–
O=C(N/N=C/c1cc(O)ccc1O)c1cc2ccccc2cc1O [MDG611]	full AR antagonists	39.9 ± 16.9	do not affect	> 100	inhibit	inhibit	inhibit	–	–	–	–	–	–
COC(=O)c1ccc(O)c(/C=N/NC(=O)c2cc3ccccc3cc2O)c1 [MDG629]	full AR antagonists	60.8	do not affect	> 100	inhibit	inhibit	inhibit	–	–	–	–	–	–
COc1ccc(O)c(/C=N/NC(=O)c2cc3ccccc3cc2O)c1 [MDG612]	full AR antagonists	52.9 ± 13.5	do not affect	> 100	inhibit	inhibit	inhibit	–	–	50 to 100	–	–	–
